Assay results from patent publication US20250129102A1, “CRYSTAL FORM OF PYRIMIDINE HETEROCYCLIC COMPOUND AND PREPARATION METHOD THEREFOR” (D3 Bio (Wuxi) Co., Ltd., priority 2021, published 2025).

Key:
Format in all cases: in vitro ADME
[1] = Stability in whole blood, beagle dogs; details: 5 μM, 37° C.
Experimental: Stabilities of the assay compound in whole blood of CD-1 mice, SD rats, beagle dogs and cynomolgus monkeys were assayed, respectively. On the day of the assay or the day before the assay, fresh whole blood from CD-1 mice, SD rats, beagle dogs, and cynomolgus monkeys was collected using anticoagulant EDTA-K2. Prior to the start of the assay, the whole blood was mixed with PBS in 1:1 (v: v) and the mixture was preheated in a 37° C. water bath for 10 to 20 minutes. 96-well incubation plates were prepared and named T0, T30, T60, […], respectively. In the corresponding incubation plates, including T0, T30, T60 and […] incubation plates, 2 μL of working solutions of the compound or the control compound were mixed with 98 μL of blank whole blood of mice, rats, canines, monkeys and human in duplicate. All samples were incubated in a 37° C. water bath. The final incubation concentration of the compound was 5 μM and the final incubation concentration of the control compound was 2 μM. At the end of incubation for each time point, the corresponding incubation plate was removed and 100 μL of ultrapure water was immediately added to the corresponding sample wells, and mixed well. 800 μL of a solution of 200 ng/mL tolbutamide and labetalol in acetonitrile was added to precipitate the protein. […] 150 μL of supernatant was taken out and analyzed by LC/MS/MS.

[2] = In vitro stability in liver microsomes, beagle dogs; details: dog, 0.5 mg/mL
Experimental: Metabolic stabilities of the assay compound in liver microsomes of CD-1 mice, SD rats, beagle dogs, cynomolgus monkeys, and human were assayed, respectively.
Two 96-well incubation plates were prepared and named T60 incubation plate and NCF60 incubation plate, respectively. 445 μL of microsomal working solutions (liver microsomal protein concentration of 0.56 mg/mL) were added to the T60 incubation plate and the NCF60 incubation plate, respectively, and then the above incubation plates were pre-incubated in a 37° C. water bath for about 10 minutes.
After the pre-incubation, 5 μL of working solutions of the assay sample or the control compound were added to the T60 incubation plate and the NCF60 incubation plate, respectively, and the mixture was mixed well. 50 μL of potassium phosphate buffer was added to each well of the NCF60 incubation plate to initiate the reaction. 180 μL of stop solution (200 ng/mL tolbutamide and 200 ng/mL labetalol in acetonitrile) and 6 uL of NADPH regeneration system working solution were added to the T0 stop plate, and 54 μL of sample was transferred from T60 incubation plate to T0 stop plate (generation of T0 sample). The reaction was initiated by adding 44 μL of NADPH regeneration system working solution to each well of the T60 incubation plate. Only 54 μL of microsome working solution, 6 uL of NADPH regeneration system working solution and 180 μL of stop solution were added to the Blank plate. Therefore, in samples of the assay compound or the control compound, the final reaction concentration of compound, testosterone, diclofenac and propafenone was 1 μM, the concentration of liver microsomes was 0.5 mg/mL, and the final reaction concentrations of DMSO and acetonitrile in the reaction system were 0.01% (v/v) and 0.99% (v/v), respectively. […] All samples were injected and analyzed by liquid chromatography-tandem mass spectrometry.

[3] = Protein binding rate in plasma by equilibrium dialysis, CD-1 mice
Experimental: Protein binding rate of the assay compound in plasma of CD-1 mice, SD rats, beagle dogs, cynomolgus monkeys and human was determined by equilibrium dialysis.
Plasma samples with a compound concentration of 2 μM were prepared using plasma of the above five species, placed in a 96-well equilibrium dialysis device, and dialyzed with phosphate buffer solution at 37±1° C. for 4 hours. Warfarin was used as the control compound in this assay. The concentrations of the assay compound in plasma and dialysis buffer were determined by LC-MS/MS method.

[4] = Metabolic stability in hepatocytes, SD rats; details: rat, cryopreserved hepatocytes
Experimental: Metabolic stabilities of assay compound in hepatocytes of CD-1 mice, SD rats, beagle dogs, cynomolgus monkeys, and human were assayed, respectively.
Several 96-well sample precipitation plates were prepared and named T0, T15, T30, T60, T90, T120, T0-MC, T120-MC and blank substrates, respectively. The recovery medium and incubation medium were taken out in advance and placed in a 37° C. water bath for pre-heating. Cryopreserved hepatocytes were removed from the liquid nitrogen tank and immediately immersed in a 37° C. water bath (approximately 90 seconds). After the cryopreserved hepatocytes had thawed and loosened, they were poured into a centrifuge tube containing 40 mL of recovery medium, and the tube was gently inverted to allow the cells to be resuspended in the recovery medium. The cells were centrifuged at 100×g at room temperature for 5 min, and the supernatant was removed. The hepatocytes were resuspended in an appropriate volume of incubation medium, and the cell viability was calculated by Trypan Blue staining method. 198 μL of hepatocyte suspension (0.51×10^6 cells/mL) was added to the preheated incubation plate. For the culture medium control group, 198 μL of hepatocyte-free incubation medium was added to T0-MC and T120-MC incubation plate. All incubation plates were pre-incubated in a 37° C. incubator for 10 minutes. Then 2 μL of working solutions of the assay sample and the control compound were added, respectively, and the mixture was mixed well. The incubation plate was immediately put into the shaker in the incubator, and the reaction was initiated while starting the timer. For each time point of each compound, 2 duplicate samples were prepared. The incubation conditions were 37° C., saturated humidity, and 5% CO2. […] All samples were mixed well and analyzed by LC/MS/MS.

SMILES: C=C(F)C(=O)N1CCN(c2nc(OC[C@@]34CCCN3C[C@H](F)C4)nc3c2CO[C@H](c2c(F)c(N)cc(C)c2C(F)(F)F)C3)C[C@@H]1CC#N [Compound of formula (I)]
- Detection of assay compound content within 240 min [1]: 102%
- CLint scaled at 1 μM [2]: < 13.8 mL/min/kg
- half-life at 1 μM [2]: > 145 min
- microsomal CLint at 1 μM ([2]; read-out: CLint(hep)): < 9.6 µL/min/mg
- fraction unbound at 4 h, 2 μM ([3]; CD-1, plasma, value used in the CD mouse PK table, read-out: Plasma protein unbound rate PPB (Unbound %)): 0.12
- Protein unbound rate (%) ([3]; CD-1 mice plasma, 2 μM, equilibrium dialysis 4 hours): 1.5%
- half-life at 1 μM [4]: 20.6 min
- hepatocyte CLint at 1 μM ([4]; read-out: CLint(hep)): 67.4 µL/min/1e6 cells
- CLint scaled at 1 μM ([4]; read-out: CLint(liver)): 315 mL/min/kg
